Test results as given in patent publication US20200369996A1, “Bioreactor Screening Platform for Modelling Human Systems Biology and for Screening for Inotropic Effects of Agents on the Heart” (NOVOHEART LIMITED, priority 2017, published 2020).
“Also recorded” adds a separate entry of the source. Like-named read-outs stand apart in the source and are kept apart here.

How the values were obtained:
[1] = test system: human ventricular cardiac tissue strips (hvCTS); assay: hvCTS drug screening: twitch force under electrical pacing; type: cell-based; conditions: Homo sapiens
Procedure: One of ordinary skill in the art will recognize that the gels can be formed in any of a variety of sizes and shapes, and the molds used to form such gels can also be formed in any of a variety of sizes and shapes, depending on the intended use of the molded gel. The molded mixtures were then bathed with culture medium (DMEM supplemented with 10% newborn calf serum), and maintained in culture with daily half-medium exchanges. Inserts in the casting molds were removed at 48 hours, yielding a self-assembled hvCTS held between 0.5-mm-diameter circular PDMS posts at each end. It is apparent that the posts can be formed from any flexible material amenable to at least one form of sterilization are suitable. As noted above, the whole mold can be scaled up or down depending on the application, and the posts can also be scaled up or down. In general, the height of the posts would be similar to the height of a well (e.g., about 6 mm in an exemplary embodiment). Any of a wide variety of cross-sectional shapes is contemplated as being suitable for use in the system, apparatus and methods according to the disclosure. At 7 days after hvCTS creation, the hvCTS were used for drug screening.
Initially, pharmacological compounds were prepared for screening. Compounds for unblinded “open label” screening were purchased from Sigma and stock solutions at the highest possible concentrations were prepared according to the product information. Working concentrations over a 5-logarithmic range were prepared for each drug.
Working concentrations over a 5-logarithmic range were prepared for each drug according to the dose-range recommendation provided by the supplier.
New born calf serum containing medium was replaced with DMEM high glucose with HEPES without phenol red for optical measurement of generated force in hvCTS. […] The integrated flexible PDMS posts were used as force sensors, with the post deflection captured in real-time with a high-speed camera (100 frames/s) and LabView software (National Instruments, Austin, Tex., USA), applying a beam-bending equation from elasticity theory to calculate twitch force, as described previously^[2] and incorporated herein by reference. These measurements were obtained with the hvCTS maintained in the original molds where they were created with the hvCTS bathed in culture medium at 37° C. For each drug, force generated in response to 9 doses were measured with the drugs added to the hvCTS at half log increments in a cumulative manner. For each dose, the force generated at 0 Hz, 0.5 Hz, 1 Hz, 1.5 Hz and 2 Hz electrical pacing with field electrodes were measured.
Data analysis. Data were calculated and analyzed by a customized MatLab program. Force frequency curves for each drug were generated by plotting the generated force at 0.5 Hz, 1 Hz, 1.5 Hz and 2 Hz at different concentrations. All forces were normalized to the generated force at 0.5 Hz at the drug-free baseline condition (100%).
[…] The force generated under drug-free baseline condition was defined as 100%. The force generated at each drug concentration was then normalized to the generated force under the cognate drug-free baseline condition. The EC50 of each tested drug was estimated by fitting to a four-parameter dose-response equation given as: Y=Bottom+(Top-Bottom)/(1+10^((Log EC^50^−X)*HillSlope)), using commercial software (GraphPad Software Inc.). X is the logarithm of drug concentrations; […]; Top and Bottom are the Y values of the top and bottom plateaus of the curve itself; Baseline is the Y value that defines 0%—maximal inhibition by a standard drug. Hill Slope quantifies the steepness of the dose-response curve (the higher the Hill Slope, the steeper the curve).

[2] = test system: sheep cardiac Purkinje fibers; conditions: ref [19]; cited from earlier work
[3] = test system: human ventricular cardiac organoid chamber (hvCOC); assay: hvCOC second tier screening: contractile (pump) function; type: cell-based
Description: The initial steps of hvCOC fabrication are identical to that described above for hvCTS generation, from the dissociation of cell clusters to the preparation of the cells/collagen/Matrigel mix with 1 million cells/ml of human dermal fibroblasts.
To create the chamber, we followed a procedure similar to a published procedure^29, incorporated herein by reference. Briefly, the top of a 3×3×6 cm polystyrene bioreactor was modified to permit 9-gauge hypodermic tubing (Small Parts) to pass through the center and 4 mm diameter graphite electrodes (GraphiteStore) to flank the chamber on the edges of the bioreactor. A 6-Fr silicone balloon Foley catheter (Cook Medical), with the tip cut off and sealed with silicone caulking, was threaded through the 9-Gauge tubing into the center of the bioreactor. A small ring cut from hydrophilic porous polyethylene (Fisher Scientific) was placed just above the balloon on the hypodermic tubing.
The balloon was filled with distilled water to the desired chamber size and positioned concentrically within a 2% agarose mold created in phosphate-buffered saline (PBS) and made by inserting a 13 mm diameter test tube (VWR) into the center of the agarose. The agarose mold forms the outer mold boundary while the catheter balloon forms the inner boundary. […]

[4] = test system: non-failing human myocardium; conditions: ref [18]; cited from earlier work
EHT from hiPSC-CMs = conditions: drug screening with EHT from hiPSC-CMs; ref [3]; cited from earlier work
[5] = test system: human right atrial trabeculae; conditions: ref [21]; cited from earlier work
hECT = hECT in muscle bath; ref [28]; cited from earlier work

SMILES: CCN(CC)CC(=O)Nc1c(C)cccc1C [Lidocaine]
- IC50 ([1]; 1 Hz pacing, blinded screening, Example 4, read-out: IC50, developed contractile force): 440 nM
- EC50 ([1]; Blinded, 1 Hz pacing, read-out: -log EC50 in hvCTS (converted)): 437000 nM
- EC50 ([1]; Blinded, 1 Hz pacing, read-out: EC50 in hvCTS (in brackets)): 439000 nM
- concentration with negative inotropic effect [2]: 20 μM, [19] negative inotropic effect in sheep

SMILES: CC(C)NCC(O)c1ccc(O)c(O)c1 (stereo not shown) [Isoproterenol]
- EC50 ([1]; 0.5 Hz pacing, Example 2 / FIG. 2C, read-out: EC50, developed contractile force): 39 nM
- EC50 ([1]; 1 Hz pacing, Example 2, read-out: EC50, developed contractile force): 59 nM
- EC50 ([1]; 1 Hz pacing, unblinded screening, Example 3, read-out: EC50, developed contractile force): 150 nM
- EC50 ([1]; 1.5 Hz pacing, Example 2, read-out: EC50, developed contractile force): 54 nM
- EC50 ([1]; 2 Hz pacing, Example 2 / FIG. 2C, read-out: EC50, developed contractile force): 31 nM
- EC50 ([1]; Unblinded, 1 Hz pacing, read-out: -log EC50 in hvCTS (converted)): 148 nM
- EC50 ([1]; Unblinded, 1 Hz pacing, read-out: EC50 in hvCTS (in brackets)): 150 nM
- EC50 ([1]; across pacing frequencies 0.5-2 Hz, FIG. 2C, read-out: EC50 with increasing pacing frequency): 31 to 59 nM
- Emax at 10 µM ([1]; 10 μM isoproterenol, hvCTS, read-out: maximal effect): 113%
- Emax at 10 µM ([3]; Homo sapiens, 10 μM isoproterenol, hvCOC, read-out: maximal effect, pressure): 132%
- effect on hvCOC function ([3]; stroke volume/stroke work, cardiac output, developed pressure): concentration-dependent increase in stroke volume, cardiac output, and developed pressure; also recorded: increase in stroke work, cardiac output and pressure volume loop
- relevant concentration [4]: 0.8 μM [18], non-failing human myocardium
- relevant concentration (EHT from hiPSC-CMs): 5.4 nM [3], drug screening with EHT from hiPSC-CMs

SMILES: COc1ccc(CCN(C)CCCC(C#N)(c2ccc(OC)c(OC)c2)C(C)C)cc1OC (stereo not shown) [Verapamil]
- IC50 [5]: 123 nM
- relevant concentration (hECT): 0.61 μM [28], hECT in muscle bath
